Laboratory results reported in PMC12040169 (PLOS Biology, 2025).

Assay: in vitro
Conditions: human, hela cells, % viability

First: C/C(=N\N=C1\N=C(O)C(CC(=O)NCc2ccccc2)S1)c1ccco1 (centres unmarked) [CBK263698]
Second: O=C(CC1S\C(=N/N=C/C=C/c2ccccc2)N=C1O)Nc1ccc(C(=O)O)cc1 (centres unmarked) [CBK263711]
The viability at 28.5 h, 10 µM of the first is lower: 89.9% for the first, 101% for the second.

Compared with `CCN1CCN(Cc2c(C)nc3ccc(C)cc3c2O)CC1` [CBK263699], `CCOC(=O)c1c(C)oc2ccc(O)c(CN3CCCCC3)c12` [CBK263838C] is higher in viability at 28.5 h, 10 µM: 89.8% for the first, 103% for the second.

Compared with `O=C(NCc1ccco1)/C(=C\c1ccccc1)NC(=O)c1ccc(Br)cc1` [CBK263701], `O=C(Nc1cccc(C(=O)O)c1)/C(=C\c1ccco1)NC(=O)c1ccc(Br)cc1` [CBK263707] is higher in viability at 28.5 h, 10 µM: 87.7% for the first, 91.3% for the second.

Going from `O=C(CC1(O)C(=O)Nc2ccccc21)CC1(O)C(=O)Nc2ccccc21` (centres unmarked) [CBK263705] to `O=C(COc1ccccc1)C(C(=O)c1ccccc1)=C1Nc2ccccc2N1` [CBK263725], the viability at 28.5 h, 10 µM rises from 93.1% to 97.8%.

Going from `CN1CCc2c(sc3nc(SCc4ccc(Cl)c(Cl)c4)n(-c4ccccc4)c(=O)c23)C1` [CBK263706] to `CC(C)N1CCc2c(sc3nc(SCc4ccc(Cl)cc4)n(Cc4ccccc4)c(=O)c23)C1` [CBK263745], the viability at 28.5 h, 10 µM falls from 94.2% to 84.4%.

First: COc1ccc(/C=N/NC(=O)c2cc[nH]n2)cc1COc1ccc(Cl)cc1Cl [CBK263708]
Second: COc1ccc(Cl)cc1NC(=O)C(=O)NCc1ccccn1 [CBK263837]
The viability at 28.5 h, 10 µM of the first is higher: 90.9% for the first, 90.2% for the second.

Compared with `O=C(CSc1cc(Cl)ccc1Cl)Nc1cccc(Cl)c1` [CBK263712], `O=C(Nc1cccc2nsnc12)c1ccc(Cl)cc1` [CBK263793] is lower in viability at 28.5 h, 10 µM: 113% for the first, 96.1% for the second.

Going from `COc1ccc(CSc2nc3sc4c(c3c(=O)n2Cc2ccccc2)CCN(Cc2ccccc2)C4)cc1` [CBK263714] to `Nc1nc(SCc2ccc(Cl)cc2)nc2sc3c(c12)CCN(Cc1ccccc1)C3` [CBK263724], the viability at 28.5 h, 10 µM rises from 85.1% to 88.1%.

Going from `O=C(Nc1ccc(S(=O)(=O)Nc2ncccn2)cc1)c1cc([N+](=O)[O-])ccc1Cl` [CBK263717] to `O=C(Nc1ccc(S(=O)(=O)Nc2ncccn2)cc1)c1ccc(Cl)c([N+](=O)[O-])c1` [CBK263739], the viability at 28.5 h, 10 µM rises from 89.9% to 101%.

`O=C(O)CNC(=O)/C(=C\c1ccc(F)cc1)NC(=O)c1ccco1` [CBK263718] and `O=C(Nc1cccc(C(=O)O)c1)/C(=C\c1ccc2c(c1)OCO2)NC(=O)c1ccccc1Cl` [CBK263746] are the same in viability at 28.5 h, 10 µM: 96.4% for the first, 96.4% for the second.

Compared with `O=C(O)COc1ccc(NC(=O)c2ccc3c(c2)C(=O)N(CC2CCCO2)C3=O)cc1` (centres unmarked) [CBK263719], `O=C(COc1ccc2ccccc2c1)Nc1ccc(S(=O)(=O)N2CCCCC2)cc1` [CBK263765] is higher in viability at 28.5 h, 10 µM: 92.5% for the first, 118% for the second.

Going from `COC(=O)C1=C(C)N(CCc2ccc(OC)c(OC)c2)C(=O)/C1=C\c1ccc(O)cc1` [CBK263722] to `CCOc1cc(/C=C2\SC(=N)NC2=O)ccc1OCc1ccc(Br)cc1` [CBK263813], the viability at 28.5 h, 10 µM rises from 89.6% to 97.7%.

Going from `O=C(O)CC1S/C(=N/N=C2/C(=O)Nc3ccccc32)N(c2ccc(O)cc2)C1=O` (centres unmarked) [CBK263723] to `COc1ccccc1NC(=O)CC1S/C(=N\N=C2/CCCc3ccccc32)N=C1O` (centres unmarked) [CBK263748], the viability at 28.5 h, 10 µM rises from 93% to 102%.

Going from `CCC1CCCCN1Cc1c(O)ccc2c(=O)c(Oc3ccc(OC)cc3)c(C(F)(F)F)oc12` (centres unmarked) [CBK263727] to `O=C(O)COc1ccc2c(=O)c(Oc3ccccc3Br)c(C(F)(F)F)oc2c1` [CBK263747], the viability at 28.5 h, 10 µM rises from 98.8% to 101%.

First: CCN(CC)CCSc1nc2sc3c(c2c(=O)n1-c1ccccc1)CC(C)(C)OC3 [CBK263728]
Second: O=C(O)CSc1nnc(-c2sc3ccccc3c2Cl)n1-c1ccccc1 [CBK263830]
The viability at 28.5 h, 10 µM of the first is higher: 96.6% for the first, 92.9% for the second.

Compared with `CC(C)(C)OC(=O)COc1cc2oc(=O)cc(-c3ccccc3)c2cc1Cl` [CBK263729], `CCOC(=O)c1c(C)oc2ccc(OCC(=O)c3ccc(Br)cc3)cc12` [CBK263841] is higher in viability at 28.5 h, 10 µM: 87.6% for the first, 92.4% for the second.

First: COc1ccccc1C/C(N)=N/OC(=O)COc1ccc2ccccc2c1 [CBK263730]
Second: O=C(COc1ccc2ccccc2c1)Nc1ccc(S(=O)(=O)N2CCc3ccccc32)cc1 [CBK263802]
The viability at 28.5 h, 10 µM of the first is lower: 89.7% for the first, 91.5% for the second.

Going from `Cc1ccc(/C=N/N=C2/N=C(O)C(CC(=O)Nc3ccccc3C(F)(F)F)S2)o1` (centres unmarked) [CBK263731] to `Cc1ccc(OCC(=O)Nc2cccc3nsnc23)c(C)c1` [CBK263816], the viability at 28.5 h, 10 µM falls from 104% to 102%.

Going from `COc1ccc(Nc2nnc(-c3ccc(C(=O)NCCO)cc3)c3ccccc23)cc1` [CBK263735] to `O=C(O)c1ccc(Nc2ncnc3c2cnn3Cc2ccccc2)cc1` [CBK263803], the viability at 28.5 h, 10 µM rises from 90.5% to 92.1%.

First: O=C(CN(c1ccccc1)S(=O)(=O)c1ccccc1[N+](=O)[O-])Nc1ccc(I)cc1 [CBK263755]
Second: COc1cccc(N(CC(=O)Nc2ccccc2Cl)S(=O)(=O)c2ccc(C)cc2)c1 [CBK263791]
The viability at 28.5 h, 10 µM of the first is lower: 58.3% for the first, 93.4% for the second.

First: Cc1ccc(NCc2nc3ccccc3n2Cc2ccccc2)cc1C [CBK263756]
Second: O=C(Cn1c2ccccc2c2ccccc21)Sc1nc2ccccc2[nH]1 [CBK263788]
The viability at 28.5 h, 10 µM of the first is lower: 98.4% for the first, 103% for the second.

Compared with `COc1cccc(N(CC(=O)Nc2ccc(C)c(C)c2)S(=O)(=O)c2ccc(C)cc2)c1` [CBK263761], `CCOc1ccccc1N(CC(=O)Nc1ccc(C)cc1C)S(C)(=O)=O` [CBK263799] is lower in viability at 28.5 h, 10 µM: 103% for the first, 96% for the second.

Compared with `COc1cc(/C=N/n2cnnc2)ccc1OCCOc1ccc(C(C)(C)C)cc1` [CBK263762], `CC(C)(C)c1cc(C(=O)N/N=C/c2ccc(O)c([N+](=O)[O-])c2)[nH]n1` [CBK263844] is higher in viability at 28.5 h, 10 µM: 88.8% for the first, 98.4% for the second.

First: COc1ccc(C(=O)C2=C(O)C(=O)N(CCCO)C2c2ccc(Br)cc2)cc1 (centres unmarked) [CBK263769]
Second: COc1ccc(C2C(C(C)=O)=C(O)C(=O)N2CCCC(=O)O)cc1 (centres unmarked) [CBK263774]
The viability at 28.5 h, 10 µM of the first is lower: 95.5% for the first, 100% for the second.

First: CS(=O)(=O)N(CC(=O)NC1CCCCC1)c1cccc2ccccc12 [CBK263770]
Second: O=C(CSC1=NC(=O)C(c2ccccc2)C(=O)N1)NC1CCCCC1 (centres unmarked) [CBK263804]
The viability at 28.5 h, 10 µM of the first is lower: 83.9% for the first, 103% for the second.

Going from `NS(=O)(=O)c1ccc(CCNC(=O)c2ccc([N+](=O)[O-])cc2)cc1` [CBK263773] to `O=C(O)CCCN1C(=O)C(O)=C(C(=O)c2ccc([N+](=O)[O-])cc2)C1c1ccccc1F` (centres unmarked) [CBK263810], the viability at 28.5 h, 10 µM falls from 104% to 97.8%.

Going from `Cc1ccc2nsnc2c1NC(=O)COc1ccccc1[N+](=O)[O-]` [CBK263779] to `Cc1ccc(C(=O)C2=C(O)C(=O)N(CCO)C2c2ccccc2[N+](=O)[O-])cc1` (centres unmarked) [CBK263822], the viability at 28.5 h, 10 µM rises from 92.7% to 97.1%.

First: Cc1ccc(S(=O)(=O)/N=C(/NCc2ccc(Cl)cc2)Nc2nc(C)cc(C)n2)cc1 [CBK263785]
Second: COC(=O)c1ccccc1NC(=O)CSc1nc(C)cc(C)n1 [CBK263818]
The viability at 28.5 h, 10 µM of the first is higher: 102% for the first, 96.2% for the second.

First: Cc1cc2c(cc1C)N(C(=O)CSc1ncn[nH]1)C(C)(C)c1ssc(=S)c1-2 [CBK263786]
Second: Cc1cc(C)n(C(=O)CCC(=O)Nc2cccc(Cl)c2C)n1 [CBK263851]
The viability at 28.5 h, 10 µM of the first is lower: 96.3% for the first, 99.3% for the second.

Going from `O=C(C1=C(O)C(=O)N(c2ccc([N+](=O)[O-])cc2)C1c1ccccc1)c1ccccc1` (centres unmarked) [CBK263787] to `O=C(O)CN1C(=O)C(O)=C(C(=O)c2ccc(Cl)cc2)C1c1ccccc1[N+](=O)[O-]` (centres unmarked) [CBK263794], the viability at 28.5 h, 10 µM rises from 94.4% to 98.5%.

Compared with `O=C(CN1C(=O)c2ccccc2C1=O)Nn1cnnc1` [CBK263789], `Nc1c(C(=O)O)nnn1Cc1ccccc1` [CBK263796] is lower in viability at 28.5 h, 10 µM: 99.6% for the first, 95.6% for the second.

Going from `O=C1CC(Sc2ccccc2)C(=O)N1c1ccc(Cc2ccc(N3C(=O)CC(Sc4ccccc4)C3=O)cc2)cc1` (centres unmarked) [CBK263797] to `CN(Cc1ccccc1)c1nc2ccccn2c(=O)c1/C=C1/SC(=S)N(CCc2ccccc2)C1=O` [CBK263839], the viability at 28.5 h, 10 µM rises from 110% to 112%.

Going from `O=C(CCSc1ccc(Cl)cc1)NCCc1ccccc1` [CBK263800] to `COC(=O)c1ccccc1NC(=O)CCSc1ccc(Cl)cc1` [CBK263817], the viability at 28.5 h, 10 µM rises from 86.4% to 109%.

Compared with `CN(C)CCCNC(=O)CCc1ccccc1` [CBK263806], `CC(Oc1ccccc1)C(=O)NCCN1CCOCC1` (centres unmarked) [CBK263812] is higher in viability at 28.5 h, 10 µM: 93% for the first, 94.1% for the second.

Going from `O=[N+]([O-])c1ccc(N2CCN(S(=O)(=O)c3ccccc3)CC2)cc1Sc1cccc2cccnc12` [CBK263821] to `Cc1cccc(OC(=O)C2C(c3ccccc3)C(C(=O)O)C2c2ccccc2)c1` (centres unmarked) [CBK263843], the viability at 28.5 h, 10 µM falls from 100% to 94%.

First: COc1ccc(Cl)cc1NC(=O)C(=O)NCC1CCCO1 (centres unmarked) [CBK263823]
Second: COc1ccccc1NC(=O)c1c(NC(=O)c2cc([N+](=O)[O-])ccc2Cl)sc2c1CCCC2 [CBK263827]
The viability at 28.5 h, 10 µM of the first is higher: 91.8% for the first, 88.7% for the second.

Going from `CC1(C)CC2CC(C)(CN2Cc2c(O)ccc3cc(-c4nc(-c5ccc(Br)cc5)cs4)c(=O)oc23)C1` (centres unmarked) [CBK263831] to `O=C(O)CSc1nnc(C2COc3ccccc3O2)n1-c1ccccc1` (centres unmarked) [CBK263832], the viability at 28.5 h, 10 µM rises from 103% to 104%.

Going from `Cc1ccc(S(=O)(=O)NC(C)(C)C(=O)O)cc1` [CBK263840] to `Cc1ccc(C2NS(=O)(=O)NC2=N)cc1` (centres unmarked) [CBK263848], the viability at 28.5 h, 10 µM rises from 88.8% to 95.2%.

Compared with `Cc1ccccc1C1NS(=O)(=O)NC1=N` (centres unmarked) [CBK263852], `Nc1nnc(Cn2c(-c3nonc3N)nc3ccccc32)s1` [CBK263854] is higher in viability at 28.5 h, 10 µM: 96.5% for the first, 117% for the second.

`Nc1nnnn1/N=C/c1cc(Cl)cc(Cl)c1OCc1ccc(Cl)cc1Cl` [CBK263853] gave a viability at 28.5 h, 10 µM of 107%.

Same assay, conditions: human, hela cells, % viability, bulk resorufin, single well

Going from `COc1ccc(N2C(=O)/C(=C/c3ccc(-c4cc(C(=O)O)ccc4Cl)o3)C(=O)NC2=S)cc1` [CBK263750] to `COc1ccc(N2C(=O)/C(=C/c3cc(C)n(-c4ccc(N5CCOCC5)cc4)c3C)C(=O)NC2=S)cc1` [CBK263798], the viability at 28.5 h, 10 µM falls from 97.8% to 89.7%.

Compared with `O=C1NC(=O)N(c2ccc3c(c2)OCO3)C(=O)/C1=C/c1ccc(OCc2cccc(C(=O)O)c2)cc1` [CBK263805], `O=C1NC(=O)N(c2ccc(O)cc2)C(=O)/C1=C/c1ccc(OCc2ccc(Cl)cc2Cl)cc1` [CBK263842] is lower in viability at 28.5 h, 10 µM: 106% for the first, 92.1% for the second.
